Measured values published in article PMC9151520 (Archives of Toxicology, 2022).
Several values for one entry are separate records, joined by “and”; a condition that tells them apart may be missing. Equal values may be shown once. Read-outs that look alike come from different tables or passages of the source.

Assays:
[1] = tested on: p53 signaling (p53RE-bla HCT-116 cells)
[2] = tested on: p53 signaling (p53RE-bla HCT-116 cells); experiment: cells; type: cell-based
[3] = rat, microsomes, pH 7.4
[4] = tested on: p53 signaling (p53RE-bla HCT-116 cells); remark: listed apart in the source
[5] = tested on: p53 signaling (p53RE-bla HCT-116 cells); experiment: cells; type: cell-based; parameters: efficacy: unit not given here; settings: for Emax: HCT-116, read-out: efficacy
[6] = tested on: p53 signaling (p53RE-bla HCT-116 cells); experiment: cells; type: cell-based; remark: listed apart in the source
[7] = tested on: p53 signaling (p53RE-bla HCT-116 cells); experiment: cells; settings: Homo sapiens; for Emax: HCT-116, read-out: efficacy
in vitro = settings: male, Sprague Dawley, rat, microsomes, pH 7.4
[8] = tested on: p53 signaling (p53RE-bla HCT-116 cells); experiment: cells; settings: Homo sapiens
[9] = rat
[10] = HCT-116, read-out: p53 activation EC50, RLM
[11] = HCT-116, read-out: p53 activation EC50, HLM
[12] = read-out: p53 activation EC50, RLM

SMILES	p53 activation EC50 [1]	p53 activation EC50 [2]	p53 activation efficacy [2]	Viability EC50 (p53RE-bla HCT-116 cells)	Viability efficacy (p53RE-bla HCT-116 cells)	Microsome stability Half-life without cells [3]	EC50 [4]	activity outcome in p53-bla assay [4]	p53 activation efficacy [4]	efficacy [5]	EC50 ([5]; read-out: EC50)	EC50 [6]	p53 activation EC50, HLM [1]	EC50 ([7]; HCT-116)	Emax [7]	EC50 [7, 10]	p53 activation EC50, No MS [2]	half-life (in vitro)	Depletion after 16 h of incubation with cells [9]	EC50 ([5]; Homo sapiens, HCT-116)	other results
COP(=S)(NC(C)C)Oc1ccc(C)cc1[N+](=O)[O-] (stereo not drawn) [Amiprofos-methyl]	inactive	inactive	inactive	inactive	inactive	1.11 min	4.69 µM	induce p53 signaling	84.8532 and 75.0867	4.48 ± 0.3 ( 100.11 ± 8.75 ) %	4.48 µM	Inactive	–	–	–	–	–	–	–	–	–
CCOP(=S)(OCC)SCCSCC [Disulfoton]	–	–	–	–	–	–	–	induce p53 signaling	–	–	–	Inactive	inactive	9.13 µM	43.3%	7.78 µM	inactive	> 120 min	93.89 ± 4.12%	8.47 µM	p53 activation Efficacy, No MS [2]: inactive; EC50 [8, 11]: 5.07 µM; Viability EC50, HLM (p53RE-bla HCT-116 cells): inactive; Viability EC50, No MS (p53RE-bla HCT-116 cells): inactive; Viability EC50, RLM (p53RE-bla HCT-116 cells): inactive; Viability Efficacy, HLM (p53RE-bla HCT-116 cells): inactive; Viability Efficacy, No MS (p53RE-bla HCT-116 cells): inactive; Viability Efficacy, RLM (p53RE-bla HCT-116 cells): inactive; EC50 [4, 12]: 3.97 µM; Emax ([5]; Homo sapiens): 43.6%
Cc1cc(=O)oc2cc(O)ccc12.O [4-Methylumbelliferone hydrate]	–	–	–	–	–	26.74 ± 0.98 min	23.3 µM	–	–	25.18 ± 1.7 ( 100.84 ± 7.34 ) %	25.2 µM	Inactive	–	–	–	–	–	–	–	–	EC50, p53 activation, cherry pick confirmation [1]: inactive; EC50, p53 activation, primary screening [1]: inactive; EC50, p53 activation, cherry pick confirmation [2]: inactive; EC50, p53 activation, primary screening [2]: inactive; Efficacy, p53 activation, cherry pick confirmation [2]: inactive; Efficacy, p53 activation, primary screening [2]: inactive; EC50, viability, cherry pick confirmation (p53RE-bla HCT-116 cells): inactive; EC50, viability, primary screening (p53RE-bla HCT-116 cells): inactive; Efficacy, viability, cherry pick confirmation (p53RE-bla HCT-116 cells): inactive; Efficacy, viability, primary screening (p53RE-bla HCT-116 cells): inactive; EC50 ([4]; read-out: EC50, p53 activation, cherry pick confirmation): 25.7 µM; EC50 ([4]; read-out: EC50, p53 activation, primary screening): 33.4 µM
CCOP(=S)(OCC)Oc1nc(Cl)c(Cl)cc1Cl [Chlorpyrifos]	–	–	–	–	–	–	–	activator of p53 signaling	–	–	–	Inactive	inactive	3.47 µM	50.6%	2.92 µM	inactive	1.11 ± 0.07 min	92.74 ± 1.38%	3.75 µM	activity outcome in p53-bla assay [2]: inactive; p53 activation Efficacy, No MS [2]: inactive; EC50 [8, 11]: 1.78 µM; Viability EC50, HLM (p53RE-bla HCT-116 cells): inactive; Viability EC50, No MS (p53RE-bla HCT-116 cells): inactive; Viability EC50, RLM (p53RE-bla HCT-116 cells): inactive; Viability Efficacy, HLM (p53RE-bla HCT-116 cells): inactive; Viability Efficacy, No MS (p53RE-bla HCT-116 cells): inactive; Viability Efficacy, RLM (p53RE-bla HCT-116 cells): inactive; EC50 [4, 12]: 2.8 µM; Emax ([5]; Homo sapiens): 45.2%
CCNP(=S)(OC)O/C(C)=C/C(=O)OC(C)C (stereo not drawn) [Propetamphos]	inactive	inactive	inactive	inactive	inactive	–	–	–	78.66 and 99.2667	–	–	–	–	3.05 µM	88.6%	–	–	> 120 min	91.32 ± 1.7%	2.59 µM	EC50 ([8]; HCT-116, read-out: p53 activation EC50): 0.731 µM; Emax ([8]; HCT-116, read-out: p53 activation efficacy): 39.9%; EC50 ([6]; Homo sapiens, HCT-116, 0.5 h): 2 µM
